Results reported in PubChem BioAssay (NCI).
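Test compounds were applied to cells in 96-well plates for 48 hours at 5 doses. GI50 = concentration required for 50% inhibition of growth. TGI: total growth inhibition.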

What was measured:
Assay in all cases: NCI tumour cell line growth inhibition, 48 h
[1] = tested on: SK-MEL-2 melanoma
[2] = tested on: SF-295 CNS
[3] = tested on: OVCAR-3 ovarian
[4] = tested on: EKVX NSCLC
[5] = tested on: MOLT-4 leukemia
[6] = tested on: NCI-H23 lung
[7] = tested on: TK-10 renal
[8] = tested on: K-562 leukemia
[9] = tested on: HT29 colon
[10] = tested on: OVCAR-4 ovarian
[11] = tested on: HOP-92 NSCLC
[12] = tested on: T-47D breast
[13] = tested on: RXF 393 renal
[14] = tested on: NCI/ADR-RES ovarian
[15] = tested on: MDA-MB-435
[16] = tested on: IGROV1 ovarian
[17] = tested on: ACHN renal
[18] = tested on: A549 NSCLC
[19] = tested on: NCI-H226 lung
[20] = tested on: HCT-15 colon
[21] = tested on: NCI-H522 lung
[22] = tested on: OVCAR-5 ovarian
[23] = tested on: HCT-116 colon
[24] = tested on: SN12C renal
[25] = tested on: HS 578T breast
[26] = tested on: MALME-3M melanoma
[27] = tested on: A498 renal
[28] = tested on: SF-539 CNS
[29] = tested on: 786-0 renal
[30] = tested on: MCF7 breast
[31] = tested on: HL-60(TB) leukemia
[32] = tested on: CCRF-CEM leukemia
[33] = tested on: NCI-H460 lung
[34] = tested on: UACC-62 melanoma
[35] = tested on: HOP-62 NSCLC
[36] = tested on: OVCAR-8 ovarian
[37] = tested on: SNB-19 CNS
[38] = tested on: HCC-2998 colon
[39] = tested on: SF-268 CNS
[40] = tested on: PC-3 prostate
[41] = tested on: KM12 colon
[42] = tested on: DU-145 prostate
[43] = tested on: UO-31 renal
[44] = tested on: MDA-MB-231 breast
[45] = tested on: RPMI-8226 leukemia
[46] = tested on: SR leukemia
[47] = tested on: COLO 205 colon
[48] = tested on: SK-MEL-28 melanoma
[49] = tested on: UACC-257 melanoma
[50] = tested on: SW-620 colon
[51] = tested on: SK-OV-3 ovarian
[52] = tested on: SK-MEL-5 melanoma
[53] = tested on: CAKI-1 renal
[54] = tested on: LOX IMVI melanoma
[55] = tested on: M14 melanoma
[56] = tested on: SNB-75 CNS
[57] = tested on: U251 CNS

Structure (SMILES): N=C(N)c1ccc(N2CCCN(c3ccc(C(=N)N)cc3)CC2)cc1
- GI50 [1]: > 100 µM
- TGI [1]: > 100 µM
- GI50 [2]: 32.6 µM
- TGI [2]: > 100 µM
- GI50 [3]: 72.4 µM
- TGI [3]: > 100 µM
- GI50 [4]: 42.4 µM
- TGI [4]: > 100 µM
- GI50 [5]: > 100 µM
- TGI [5]: > 100 µM
- GI50 [6]: 74.5 µM
- TGI [6]: > 100 µM
- GI50 [7]: 58.2 µM
- TGI [7]: > 100 µM
- GI50 [8]: 89.6 µM
- TGI [8]: > 100 µM
- GI50 [9]: 74.5 µM
- TGI [9]: > 100 µM
- GI50 [10]: > 100 µM
- TGI [10]: > 100 µM
- GI50 [11]: 89.6 µM
- TGI [11]: > 100 µM
- GI50 [12]: 22.6 µM
- TGI [12]: 81 µM
- GI50 [13]: 98.2 µM
- TGI [13]: > 100 µM
- GI50 [14]: > 100 µM
- TGI [14]: > 100 µM
- GI50 [15]: > 100 µM
- TGI [15]: > 100 µM
- GI50 [16]: > 100 µM
- TGI [16]: > 100 µM
- GI50 [17]: > 100 µM
- TGI [17]: > 100 µM
- GI50 [18]: 40.5 µM
- TGI [18]: > 100 µM
- GI50 [19]: 84.7 µM
- TGI [19]: > 100 µM
- GI50 [20]: 65.3 µM
- TGI [20]: > 100 µM
- GI50 [21]: 81.9 µM
- TGI [21]: > 100 µM
- GI50 [22]: > 100 µM
- TGI [22]: > 100 µM
- GI50 [23]: > 100 µM
- TGI [23]: > 100 µM
- GI50 [24]: 66.6 µM
- TGI [24]: > 100 µM
- GI50 [25]: 32.4 µM
- TGI [25]: 96.9 µM
- GI50 [26]: 39.6 µM
- TGI [26]: > 100 µM
- GI50 [27]: 1.76 µM
- TGI [27]: 9.62 µM
- GI50 [28]: 41.5 µM
- TGI [28]: > 100 µM
- GI50 [29]: > 100 µM
- TGI [29]: > 100 µM
- GI50 [30]: 52.3 µM
- TGI [30]: > 100 µM
- GI50 [31]: > 100 µM
- TGI [31]: > 100 µM
- GI50 [32]: > 100 µM
- TGI [32]: > 100 µM
- GI50 [33]: 50.6 µM
- TGI [33]: > 100 µM
- GI50 [34]: 89 µM
- TGI [34]: > 100 µM
- GI50 [35]: 61.6 µM
- TGI [35]: > 100 µM
- GI50 [36]: 49.6 µM
- TGI [36]: > 100 µM
- GI50 [37]: 48.7 µM
- TGI [37]: > 100 µM
- GI50 [38]: > 100 µM
- TGI [38]: > 100 µM
- GI50 [39]: 57.7 µM
- TGI [39]: > 100 µM
- GI50 [40]: > 100 µM
- TGI [40]: > 100 µM
- GI50 [41]: 62.1 µM
- TGI [41]: > 100 µM
- GI50 [42]: 46.7 µM
- TGI [42]: > 100 µM
- GI50 [43]: > 100 µM
- TGI [43]: > 100 µM
- GI50 [44]: > 100 µM
- TGI [44]: > 100 µM
- GI50 [45]: > 100 µM
- TGI [45]: > 100 µM
- GI50 [46]: > 100 µM
- TGI [46]: > 100 µM
- GI50 [47]: 31.8 µM
- TGI [47]: > 100 µM
- GI50 [48]: > 100 µM
- TGI [48]: > 100 µM
- GI50 [49]: > 100 µM
- TGI [49]: > 100 µM
- GI50 [50]: > 100 µM
- TGI [50]: > 100 µM
- GI50 [51]: > 100 µM
- TGI [51]: > 100 µM
- GI50 [52]: 27.9 µM
- TGI [52]: > 100 µM
- GI50 [53]: 99.7 µM
- TGI [53]: > 100 µM
- GI50 [54]: 56.1 µM
- TGI [54]: > 100 µM
- GI50 [55]: > 100 µM
- TGI [55]: > 100 µM
- GI50 [56]: > 100 µM
- TGI [56]: > 100 µM
- GI50 [57]: 47.7 µM
- TGI [57]: > 100 µM
